Laboratory results: US11696913B2, “Prolonged ectoparasite-controlling agent for animal” (MITSUI CHEMICALS AGRO, INC., priority 2017, dated 2023)

Assays:
[1] = tested on: Rhipicephalus (Boophilus) microplus; assay: In vitro injection test with Rhipicephalus (Boophilus) microplus (BOOPMI Inj); conditions: 168 h, laid fertile eggs after 7 days, read-out: acaricidal activity; for pest or weed control at 32 ng: dose 0.032 μg/animal injected; for pest or weed control at 0.00016 mg: dose 0.16 μg/animal injected; for pest or weed control at 0.0008 mg: dose 0.8 μg/animal injected
Procedure, shortened: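 Test substance in DMSO; 1 μl injected into abdomen of each of 5 engorged adult female ticks, then held at 28° C., 85% rel. hum. Activity scored after 7 days from laying of fertile eggs: 100% = no eggs or all infertile, 0% = all eggs fertile.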

Ctenocephalides felis [2] = assay: Ctenocephalides felis in-vitro feeding test with fleas (CTECFE oral); conditions: 48 hours, read-out: insecticidal feeding activity; for pest or weed control at 0.16 ppm: dose 0.16 ppm in citrated cattle blood; for pest or weed control at 0.8 ppm: dose 0.8 ppm in citrated cattle blood; for pest or weed control at 4 ppm: dose 4 ppm in citrated cattle blood
Procedure, shortened: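 About 20 unfed adult cat fleas fed through parafilm on citrated cattle blood containing test substance (DMSO solution diluted in blood), held at about 37° C. Kill rate scored after 48 hours, 100% meaning all fleas dead.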

Rhipicephalus sanguineus = assay: In vitro contact test with adult hard ticks (Rhipicephalus sanguineus); conditions: read-out: acaricidal activity; for pest or weed control at 0.2 µg/cm2, 0.2 µg/cm2: dose 0.2 μg/cm^2, 48 h; for pest or weed control at 1 µg/cm2, 1 µg/cm2: dose 1 μg/cm^2, 48 h
Procedure, shortened: (§1)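 Adult R. sanguineus, I. ricinus, D. variabilis or A. americanum nymphs exposed in glass vials coated with compound from acetone (900 ppm gives 5 μg/cm^2). Held 48 h at room temperature (R. sanguineus) or 21° C., 85% rel. hum.; then heated at 45-50° C. ≤5 min, motionless or uncoordinated ticks scored dead/moribund.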

Dermacentor variabilis = assay: In vitro contact test with adult hard ticks (Dermacentor variabilis); conditions: read-out: acaricidal activity; for pest or weed control at 1 µg/cm2, 1 µg/cm2: dose 1 μg/cm^2, 48 h; for pest or weed control at 0.2 µg/cm2, 0.2 µg/cm2: dose 0.2 μg/cm^2, 48 h
Procedure, shortened: as §1

Laodelphax striatellus = assay: Insecticidal testing against small brown planthopper; format: in vivo; conditions: 144 h, concentration 100 ppm, sprayed rice seedlings, after 6 days, read-out: pesticidal rate
Experimental: Insecticidal Testing Against Small Brown Planthopper (Laodelphax striatellus)
An additional test was carried out with 10 small brown planthoppers by preparing an acetone solution of the testing compound diluted to a predetermined concentration, spraying the solution onto rice seedlings and air drying the rice seedlings. The medicament was all used as received. The rice seedlings were placed in a constant-temperature room at 25° C., and the survival rate was investigated after 6 days. The test was carried out by means of one group of 10 pests.

Ctenocephalides felis [3] = assay: In vitro contact test with fleas; conditions: read-out: insecticidal activity; for pest or weed control at 0.2 µg/cm2, 0.2 µg/cm2: dose 0.2 μg/cm^2, dead or moribund fleas after 48 h; for pest or weed control at 1 µg/cm2, 1 µg/cm2: dose 1 μg/cm^2, dead or moribund fleas after 48 h; for pest or weed control at 0.04 µg/cm2, 0.04 µg/cm2: dose 0.04 μg/cm^2, dead or moribund fleas after 48 h
Procedure, shortened: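 Adult male and female cat fleas (5-10 per tube) placed in glass tubes coated with compound from acetone solution (900 ppm gives 5 μg/cm^2), kept at room temperature and ambient humidity. After 48 h, motionless or uncoordinated fleas scored dead or moribund; activity expressed as % dead or moribund.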

Spodoptera litura = assay: Insecticidal testing against common cutworm; format: in vivo; conditions: foliar, 144 h, concentration 100 ppm, cabbage leaf dip, second-stage larvae, after 6 days, read-out: pesticidal rate
Text: Insecticidal Testing Against Common Cutworm (Spodoptera litura)

Plutella xylostella = assay: Insecticidal testing against diamondback moth; format: in vivo; conditions: foliar, 144 h, concentration 100 ppm, cabbage leaf dip, third-stage larvae, after 6 days, read-out: pesticidal rate
Text: Insecticidal Testing Against Diamondback Moth (Plutella xylostella)

Amblyomma americanum = assay: In vitro contact test with hard ticks (Amblyomma americanum nymphs); conditions: read-out: acaricidal activity; for pest or weed control at 0.2 µg/cm2, 0.2 µg/cm2: dose 0.2 μg/cm^2, 48 h; for pest or weed control at 1 µg/cm2, 1 µg/cm2: dose 1 μg/cm^2, 48 h
Procedure, shortened: as §1

With CN(C(=O)c1ccc(Cl)cc1)c1cccc(C(=O)Nc2c(I)cc(C(F)(C(F)(F)F)C(F)(F)F)cc2C(F)(F)F)c1F [Compound 60] the pest or weed control at 32 ng [1] was 100%, the pest or weed control at 0.00016 mg [1] was 100% and the pest or weed control at 0.0008 mg [1] was 100%. The pest or weed control at 0.16 ppm (Ctenocephalides felis [2]) was 95%, the pest or weed control at 0.8 ppm (Ctenocephalides felis [2]) was 95% and the pest or weed control at 4 ppm (Ctenocephalides felis [2]) was 95%. The pest or weed control at 0.2 µg/cm2, 0.2 µg/cm2 (Rhipicephalus sanguineus) was 90%, the pest or weed control at 1 µg/cm2, 1 µg/cm2 (Rhipicephalus sanguineus) was 90% and the pest or weed control at 1 µg/cm2, 1 µg/cm2 (Dermacentor variabilis) was 90%. For the same compound, the pest or weed control at 100 ppm (Laodelphax striatellus) was ≥ 70%, the pest or weed control at 0.2 µg/cm2, 0.2 µg/cm2 (Ctenocephalides felis [3]) was 95% and the pest or weed control at 1 µg/cm2, 1 µg/cm2 (Ctenocephalides felis [3]) was 95%. For the same compound, the pest or weed control at 100 ppm (Spodoptera litura) was ≥ 70%, the pest or weed control at 100 ppm (Plutella xylostella) was ≥ 70% and the pest or weed control at 0.2 µg/cm2, 0.2 µg/cm2 (Amblyomma americanum) was 90%. It also gave a pest or weed control at 1 µg/cm2, 1 µg/cm2 (Amblyomma americanum) of 90%.
COc1ccc(C(=O)N(C)c2cccc(C(=O)Nc3c(I)cc(C(F)(C(F)(F)F)C(F)(F)F)cc3C(F)(F)F)c2F)cc1 [Compound 62] gave a pest or weed control at 0.00016 mg [1] of 100%, a pest or weed control at 0.0008 mg [1] of 100% and a pest or weed control at 0.16 ppm (Ctenocephalides felis [2]) of 95%. It also gave a pest or weed control at 0.8 ppm (Ctenocephalides felis [2]) of 95%, a pest or weed control at 4 ppm (Ctenocephalides felis [2]) of 95% and a pest or weed control at 1 µg/cm2, 1 µg/cm2 (Rhipicephalus sanguineus) of 90%. For the same compound, the pest or weed control at 1 µg/cm2, 1 µg/cm2 (Dermacentor variabilis) was 90%, the pest or weed control at 100 ppm (Laodelphax striatellus) was ≥ 70% and the pest or weed control at 0.2 µg/cm2, 0.2 µg/cm2 (Ctenocephalides felis [3]) was 95%. For the same compound, the pest or weed control at 1 µg/cm2, 1 µg/cm2 (Ctenocephalides felis [3]) was 95%, the pest or weed control at 100 ppm (Spodoptera litura) was ≥ 70% and the pest or weed control at 100 ppm (Plutella xylostella) was ≥ 70%. It also gave a pest or weed control at 1 µg/cm2, 1 µg/cm2 (Amblyomma americanum) of 90%.
Compound CN(C(=O)c1ccc(F)c(F)c1)c1cccc(C(=O)Nc2c(Br)cc(C(F)(C(F)(F)F)C(F)(F)F)cc2OC(F)(F)F)c1F [Compound 100] has a pest or weed control at 0.00016 mg [1] of 100%, a pest or weed control at 0.0008 mg [1] of 100% and a pest or weed control at 0.16 ppm (Ctenocephalides felis [2]) of 95%. The pest or weed control at 0.8 ppm (Ctenocephalides felis [2]) was 95%, the pest or weed control at 4 ppm (Ctenocephalides felis [2]) was 95% and the pest or weed control at 1 µg/cm2, 1 µg/cm2 (Rhipicephalus sanguineus) was 90%. For the same compound, the pest or weed control at 0.2 µg/cm2, 0.2 µg/cm2 (Dermacentor variabilis) was 90%, the pest or weed control at 1 µg/cm2, 1 µg/cm2 (Dermacentor variabilis) was 90% and the pest or weed control at 100 ppm (Laodelphax striatellus) was ≥ 70%. It also gave a pest or weed control at 0.04 µg/cm2, 0.04 µg/cm2 (Ctenocephalides felis [3]) of 95%, a pest or weed control at 0.2 µg/cm2, 0.2 µg/cm2 (Ctenocephalides felis [3]) of 95% and a pest or weed control at 1 µg/cm2, 1 µg/cm2 (Ctenocephalides felis [3]) of 95%. For the same compound, the pest or weed control at 100 ppm (Spodoptera litura) was ≥ 70%, the pest or weed control at 100 ppm (Plutella xylostella) was ≥ 70% and the pest or weed control at 0.2 µg/cm2, 0.2 µg/cm2 (Amblyomma americanum) was 90%. For the same compound, the pest or weed control at 1 µg/cm2, 1 µg/cm2 (Amblyomma americanum) was 90%.
For CN(C(=O)c1ccc(C(F)(F)F)nc1)c1cccc(C(=O)Nc2c(I)cc(C(F)(C(F)(F)F)C(F)(F)F)cc2OC(F)(F)F)c1F [Compound 117, N-(2-fluoro-3-((2-iodo-4-(perfluoropropan-2-yl)-6-(trifluoromethoxy)phenyl)carbamoyl)phenyl)-N-methyl-6-(trifluoromethyl)nicotinamide], the pest or weed control at 32 ng [1] was 100%, the pest or weed control at 0.00016 mg [1] was 100% and the pest or weed control at 0.0008 mg [1] was 100%. For the same compound, the pest or weed control at 0.032 ppm (Ctenocephalides felis [2]; dose 0.032 ppm in citrated cattle blood) was 95%, the pest or weed control at 0.16 ppm (Ctenocephalides felis [2]) was 95% and the pest or weed control at 0.8 ppm (Ctenocephalides felis [2]) was 95%. The pest or weed control at 4 ppm (Ctenocephalides felis [2]) was 95%, the pest or weed control at 0.2 µg/cm2, 0.2 µg/cm2 (Rhipicephalus sanguineus) was 90% and the pest or weed control at 1 µg/cm2, 1 µg/cm2 (Rhipicephalus sanguineus) was 90%. For the same compound, the pest or weed control at 100 ppm (Laodelphax striatellus) was ≥ 70%, the pest or weed control at 0.2 µg/cm2, 0.2 µg/cm2 (Ctenocephalides felis [3]) was 95% and the pest or weed control at 1 µg/cm2, 1 µg/cm2 (Ctenocephalides felis [3]) was 95%. The pest or weed control at 100 ppm (Spodoptera litura) was ≥ 70%, the pest or weed control at 100 ppm (Plutella xylostella) was ≥ 70% and the pest or weed control at 1 µg/cm2, 1 µg/cm2 (Amblyomma americanum) was 90%.
With CN(C(=O)c1ccc(C#N)nc1)c1cccc(C(=O)Nc2c(I)cc(C(F)(C(F)(F)F)C(F)(F)F)cc2C(F)(F)F)c1F [Compound 57] the pest or weed control at 32 ng [1] was 100%, the pest or weed control at 0.00016 mg [1] was 100% and the pest or weed control at 0.0008 mg [1] was 100%. For the same compound, the pest or weed control at 0.16 ppm (Ctenocephalides felis [2]) was 95%, the pest or weed control at 0.8 ppm (Ctenocephalides felis [2]) was 95% and the pest or weed control at 4 ppm (Ctenocephalides felis [2]) was 95%. It also gave a pest or weed control at 0.2 µg/cm2, 0.2 µg/cm2 (Rhipicephalus sanguineus) of 90%, a pest or weed control at 1 µg/cm2, 1 µg/cm2 (Rhipicephalus sanguineus) of 90% and a pest or weed control at 0.2 µg/cm2, 0.2 µg/cm2 (Dermacentor variabilis) of 90%. For the same compound, the pest or weed control at 1 µg/cm2, 1 µg/cm2 (Dermacentor variabilis) was 90%, the pest or weed control at 100 ppm (Laodelphax striatellus) was ≥ 70% and the pest or weed control at 0.04 µg/cm2, 0.04 µg/cm2 (Ctenocephalides felis [3]) was 95%. For the same compound, the pest or weed control at 0.2 µg/cm2, 0.2 µg/cm2 (Ctenocephalides felis [3]) was 95%, the pest or weed control at 1 µg/cm2, 1 µg/cm2 (Ctenocephalides felis [3]) was 95% and the pest or weed control at 100 ppm (Spodoptera litura) was ≥ 70%. For the same compound, the pest or weed control at 100 ppm (Plutella xylostella) was ≥ 70% and the pest or weed control at 1 µg/cm2, 1 µg/cm2 (Amblyomma americanum) was 90%.
